Laboratory results as given in US10278958B2, “IPA as a protective agent” (IXCELA, INC., priority 2012, dated 2019).
“Also recorded” adds a separate entry of the source.

Key:
angiotensin I = target: T1, angiotensin I (Homo sapiens, UniProt P01019); assay: Fenton reaction of I3PA with angiotensin I, MS/MS
T1 construct: attempt this Fenton reaction with I3PA using angiotensin I as the peptide target; purchased The American Peptide Co
Protocol: Angiotensin I was obtained from The American Peptide Co in Sunnyvale, Calif., USA. Six tubes were prepared with the following Fenton reaction mixtures: Tubes 1 and 4 contained 100 μM H2O2, 10 μM iron sulfate and 100 μM I3PA; Tubes 2 and 5 contained 100 μM H2O2, 100 μM iron sulfate and 100 μM I3PA. Tubes 3 and 6 contained 100 μM H2O2, 200 μM iron sulfate and 100 μM I3PA. Tubes 4, 5, and 6 also contained 1 μl of angiotensin I prepared to a concentration of 10 mg/ml. A separate tube containing only the Fenton reaction without angiotensin I was prepared and labeled as the negative control. The tubes containing the reaction mixtures were covered with aluminum wrap so that none of the reagents would deteriorate in the ambient light. All reaction mixtures were kept on ice. The tubes were left to react for 30 h.
High resolution MS analysis of the reaction mixtures was performed using a 12-T Qh/FT-ICR hybrid mass spectrometer (SolariX, Bruker Daltonics) that was equipped with a nanospray source operated in the positive mode. Samples were diluted 1:2 in 50/50 methanol/water, 0.5% formic acid (for positive-ion mode) or 50/50 methanol/water, 0.05% triethylamine (TEA) (VWR Scientific, PA, USA) (for negative-ion mode) and were analyzed on the SolariX in positive and negative modes. Detection of ions in the SolariX was obtained at a resolution of approximately 110,000. […]

ubiquitin = target: T2, ubiquitin (Homo sapiens, UniProt P0CG47); assay: Fenton reaction of I3PA with ubiquitin, high resolution MS
T2 construct: A calculation of a theoretical value for ubiquitin ([M+H]^+ m/z 8560.6287)
Protocol: A Fenton reaction was performed using the same concentrations of hydrogen peroxide, iron sulfate and I3PA as discussed above. One microliter of a solution of ubiquitin prepared to a concentration of 10 mg/mi was added to the mixture. In addition, a separate tube containing only the Fenton reaction without ubiquitin was prepared and labeled as the negative control. The reaction was kept in the dark at 4° C. for 16 h.
High resolution MS analysis of the reaction mixtures was performed using a 12-T Qh/FT-ICR hybrid mass spectrometer (SolariX, Bruker Daltonics) that was equipped with a nanospray source operated in the positive mode. Samples were diluted 1:10 in 50/50 methanol/water, 0.5% formic acid and analyzed on the SolariX. Detection of ions in the SolariX was obtained at a resolution of approximately 110,000.

[1] = Distribution of gut-produced IPA to plasma, brain and CSF; type: in vivo, HD mouse models and human; details: for crossing of the blood-brain-barrier: gut-produced IPA, brain and CSF
Description: (§1) IPA is an indole produced in organisms such as c. Sporogenes that have the enzyme to remove the OH from the 2 position on the propionic acid side chain of indole lactic acid an end product of tryptophan metabolism in mammalian species. It is one of several gut metabolites that affect the plasma metabolome. Other organisms such as brewers yeast also show the ability to produce IPA (Sec below a means of producing purified IPA preparations using brewers yeast or similar organisms). […] We have shown that on free radical attack the intermediate positive ion free radical binds to protein as a kynuric acid moiety. […] We also have identified two metabolites of IPA that allow monitoring of levels in excretion samples such as urine which correlate with plasma and brain levels.

[2] = tested on: ischemia-induced neuronal damage; details: mice and hamsters; by reducing DNA damage and lipid peroxidation; cited from earlier work
brewers yeast protein = assay: Binding of IPA to brewers yeast protein (10K MW filter) and release in HCl; type: physicochemical; details: supernate through a 10K MW filter
Description: In yet another aspect of the disclosure we provide a method for preparation of purified indole therapies. Indoles as a class are subject to degradation and contamination such as the problem encountered with preparations of tryptophan that were related to development basal eosinophilia. Nominally pure commercial sources of indoles when evaluated using ultra-sensitive LCECA techniques show traces of other compounds from the […] to (pg/mg) levels (part per billion to sub part per trillion). These are potentially harmful. Pharmaceutical grade and supplemental tryptophan has now been brought to levels high purity that can be verified by LCECA. To take advantage of this we have developed a protocol for creating high concentrations of IPA using brewers yeast which also produces IPA with relatively good efficiency operating on a substrate of glucose and tryptophan. Brewers yeast as such is a common supplement and present as an extract in typical research mouse feed. Production of IPA in this matrix provides a highly purified IPA in a verifiably and long accepted matrix. As an example a preparation of 1 g of brewers yeast, 500 mg of glucose and 50 mg of tryptophan allowed to incubate to completion at room temperature (90-120 min) in 35 ml of distilled water yields ca. 3 mg of IPA. […]

[3] = Fenton reaction: disappearance of I3PA; type: physicochemical; details: 100 μM H2O2, 10 μM iron sulfate, 100 μM I3PA, 4° C. in the dark, 2 h
Protocol: The reaction mixture was kept at 4° C. in the dark. Every 30 min, a small aliquot of the reaction mixture was diluted 1:10 and injected onto the offline LC-EC array system.

protein aggregation = details: in vitro; cited from earlier work
E. coli = details: culture studies; cited from earlier work
whole human plasma = assay: Binding constants for I3PA by serial additions, whole human plasma; details: whole human plasma vs ubiquitin
Description: (§2) In ancillary studies we measured the parent binding constants for I3PA with whole human plasma, HSA, BSA and ubiquitin using serial additions of I3PA to determine the number of molar equivalents of binding sites and mole equivalents of free I3PA. The binding constants (pk) for whole human plasma, HSA and BSA are one the order of 10^3 or greater than for ubiquitin alone. […] Thus, efforts to increase the yield of covalently bound kynuric acid were prevented by over generation of non-covalently bound material. We then decided to attempt this Fenton reaction with I3PA using angiotensin I as the peptide target.

[4] = Stability of IPA in plasma at room temperature; type: in vitro ADME; details: after 7 days at room temperature
Description: FIG. 26 illustrates the first criterion for selecting compounds for targeted methods is that is a progressive biomarkers—as shown by the trend from C to PMHD to HD in the left hand panel for IPA. A practical criterion is stability. […] Method development then involves integrating simplest preparative and instrument protocols for speed and minimum sample size and interferences. A preparative protocol using a simple 3:1 addition of methanol to plasma centrifuging and injecting supernate was matched to a mobile phase, column and detector settings allowing sensitivity to 2 ng/ml, linearity across the range and analysis with no currently determined interferences. […] The third panel illustrates the application of the method to mouse urine in a dose loading study of IPAM showing two metabolites in dosed animals (green) and the same two metabolites in un dosed mice (blue) and in human urine (red).

BSA = BSA (Bos taurus, UniProt P02769); type: binding
Description: as §2

[5] = tested on: Alzheimer β-amyloid protein; details: two examples of oxidative stress; cited from earlier work
[6] = tested on: plasma proteins both albumin and imunoglobulins; type: in vitro ADME
Description: as §1

[7] = Loading study of IPAM in R6/2 HD mice; type: in vivo, mouse
Protocol: A cohort of R6/2 HD mice were dosed daily for 3 weeks intra peritoneal with 200 ug of the IPA derivative amide indole propionamide (IPAM) and compared with undosed R6/2 and their wild type littermates. Feces and urine were collected at the time of sacrifice and blood and brain after sacrifice. The data indicates: • 1. That the brain and plasma levels correlate with urinary levels and thus animals can be tracked in a drug trial without sacrifice. • 2. […] The R6/2 levels of IPA in brain and plasma are lower than in wild type mice. In this study although feces levels were lower the decrease was not significant.

Chain of BSA (P02769 25-607): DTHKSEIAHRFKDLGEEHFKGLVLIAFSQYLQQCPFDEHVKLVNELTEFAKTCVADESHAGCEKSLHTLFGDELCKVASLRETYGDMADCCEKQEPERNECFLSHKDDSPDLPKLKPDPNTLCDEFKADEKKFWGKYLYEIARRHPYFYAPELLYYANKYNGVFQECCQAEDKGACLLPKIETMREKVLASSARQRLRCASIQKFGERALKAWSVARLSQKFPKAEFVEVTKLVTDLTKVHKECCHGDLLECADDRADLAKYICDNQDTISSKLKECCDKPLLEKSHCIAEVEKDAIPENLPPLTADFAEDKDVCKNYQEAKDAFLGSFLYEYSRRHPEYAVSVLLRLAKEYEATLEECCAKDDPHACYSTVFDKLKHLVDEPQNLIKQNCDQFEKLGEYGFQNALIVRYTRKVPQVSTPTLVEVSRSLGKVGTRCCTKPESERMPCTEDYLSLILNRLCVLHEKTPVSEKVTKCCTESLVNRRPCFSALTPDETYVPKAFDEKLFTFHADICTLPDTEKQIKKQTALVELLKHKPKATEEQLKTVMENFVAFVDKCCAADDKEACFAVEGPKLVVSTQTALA

Molecule: kynuric acid
- covalent binding site on angiotensin I (angiotensin I): Tyr4
- binding of I3PA oxidation product to ubiquitin (ubiquitin): bound both covalently and co-coordinately

Molecule: O=C(O)CCc1c[nH]c2ccccc12 [IPA, indole-3-propionic acid]
- absorption ([1]; animal model and human studies): best adsorbed through the gut
- crossing of the blood-brain-barrier [1]: crosses the BBB and is found in brain and CSF
- crossing of the blood-brain-barrier ([1]; listed as I3PA): did cross the blood-brain-barrier; also recorded: crosses the blood-brain-barrier
- transfer from gut to plasma ([1]; residual fecal levels vs plasma levels): majority of IPA produced is transferred to plasma
- protection of neurons [2]: protects neurons from ischemia-induced neuronal damage
- IPA coordinately bound to brewers yeast protein (brewers yeast protein): 75-80%
- oxidative stability in Fenton reaction [3]: disappearance of I3PA
- effect on protein aggregation (protein aggregation): suppress protein aggregation
- effect on other microbial species (E. coli): suppress other microbial species such as E. coli
- binding constants (pk) relative to ubiquitin alone (whole human plasma): ~10^3
- degradation in plasma [4]: 5%
- binding constants (pk) relative to ubiquitin alone (BSA): ~10^3
- neuroprotection [5]: strong levels of neuroprotection
- binding to plasma proteins [6]: strongly bound to plasma proteins
- free levels [6]: ca. 0.1 ng/ml
- loading capacity of plasma for IPA [6]: approximately 10 ug/ml
- normal plasma levels [6]: ca. 200 ug/ml

Molecule: indole propionamide [IPAM]
- conversion of IPAM to IPA ([7]; intra peritoneal 200 ug daily for 3 weeks, R6/2 mice, blood/plasma vs gut): converted rapidly in the blood to IPA but less rapidly in the gut; also recorded: rapidly converted to IPA in the plasma; also recorded: converted rapidly to I3PA in plasma and less rapidly in the gut
- urinary metabolites ([7]; mouse urine of dosed animals): probable glucuronide type Phase II metabolite compounds
